From US20090169474A1, “METHOD FOR NONINVASNELY AND QUANTITATIVELY MONITORING THERAPEUTIC AND DIAGNOSTIC TRANSGENE EXPRESSION INDUCED BY EX VNO AND IN VNO GENE TARGETING IN ORGANS, TISSUES AND CELLS” (The Regentsf of the University of California, priority 2006, published 2009)

Experiments:
[1] = test system: HSV1-sr39tk reporter gene expression in cardiac allografts; test: Micro-PET imaging of [18F]FHBG / [18F]FDG accumulation; assay type: in vivo; conditions: recipient rabbit with gene transfected donor heart in the neck
Procedure: Micro-PET scan was performed on postoperative days 2, 4, 6, 8, 12, 20, and 28 in the IL-10 gene therapy group and days 2, 4, 6, and 8 in the control group. Recipient rabbits were intravenously injected with 1 mCi of [^18F]FHBG PET reporter probe. After a 1-h rest to allow for tracer uptake and clearance, the rabbits were imaged with a micro-PET-P4 (Primate P4; Concorde Microsystems, Inc., Knoxville, Tenn., USA) for 45 min over the neck and chest. Micro-PET image data were reconstructed by filtered back-projection and were reoriented into short, vertical, and horizontal long axis slices. From regions of interest on the anterolateral wall (short axis cut), derived counts/pixel/min were converted to counts/ml/min using a calibration constant obtained from scanning a cylindrical phantom. The regions-of-interest (ROI) counts/ml/min were converted to counts/g/min (assuming a tissue density of 1 g/ml) and divided by the injected dose to obtain an image ROI-derived [^18F]FHBG percentage injected dose per gram of heart (% ID/g). The total myocardial accumulation of [^18F]FHBG was corrected for background activity in each region of interest, summed for the 12 slices, and expressed as % ID=(total activity in 12 regions of interest (ROI), left ventricle (LV) (MBq)-total activity in 12 ROI BG (MBq))/injected dose (MBq)×100. […]

[2] = test system: wild-type HSV1-tk and HSV1-sr39tk PET reporter genes; test: In vivo imaging of PET reporter genes with reporter probes
Description: Two main categories of substrates, uracil nucleoside derivatives labelled with radioactive iodine (e.g., I-labelled 2′fluoro-2′-deoxy-1-β-D-arabinofura-nosyl-5-iodo-uracilc(FIAU)), and acycloguanosine derivatives labelled with radioactive ^18F-fluorine (e.g., 9-[(4-[^18F]-fluoro-3-hydroxymethylbutyl)guanine (FHBG) and 8-[^18F]fluropenciclorivr (FPCV)), have been investigated as reporter probes for imaging HSV1-tk reporter gene expression.

Row | Molecule | localization of probe activity on micro-PET [1] | effectiveness as probe for in vivo imaging, compared with FPCV [2]
1 | 2-[^18F]fluoro-2-deoxy-d-glucose [[^18F]FDG] | in the donor heart as well as in the recipient's heart and skeletal muscle of limb and neck | 
2 | Nc1nc2c(ncn2CCC(CO)C[18F])c(=O)[nH]1 (stereo not drawn) [[^18F]FHBG, 9-(4-[^18F]fluoro-3-hydroxymethylbutyl)guanine] | only in targeted donor heart in the neck | more effective probe
